Legend:
[1] = system: AVMs induced by BMP9/10 blocking antibodies; assay: Retinal vasculature analysis in BMP9/10 blocking antibody mouse model of HHT; format: in vivo; conditions: BMP9/10 Abs P2 and P4
[2] = system: vascular malformations in Alk1EC^iKO pups; assay: Blue latex dye vascular perfusion of brain, lungs and intestinal tract in Alk1EC^iKO pups; format: in vivo, mouse
From the text: FIG. 5A illustrates a timeline used for tamoxifen (Tx) injection and CDK4/6i treatment of Alk1EC^iKO pups. FIG. 5B illustrates representative images showing retinal vasculature labelled with IB4 from control, Alk1EC^iKO, and Alk1EC^iKO+CDK4/6i-treated P5 animals. Bar graphs showing (FIG. 5C) quantification of AV shunt number per retina, (FIG. 5D) vascular density, and (FIG. 5E) vascular progression. (N=8 to 10 retinas/group, at least 4 mice). Data are mean±SEM, One-way ANOVA, *p≤0.05, **p≤0.01). FIG. 5F illustrates a timeline used for Tx injection and CDK4/6i treatment of Alk1EC^iKO pups for blue latex dye perfusion experiments. FIG. 5G illustrates blue latex dye vascular perfusion in brains from control, Alk1EC^iKO, and Alk1EC^iKO+CDK4/6i-treated P7 animals. […] FIG. 5H illustrates the quantification of left middle cerebral artery (MCA) and basilar artery (BA) in control, Alk1EC^iKO, and Alk1EC^iKO+CDK4/6i-treated animals. FIG. 5I illustrates the quantification of the number of latex filled veins in control, Alk1EC^iKO, and Alk1EC^iKO+CDK4/6i-treated animals. (N=4 to 6 mice/group. Data are mean±SEM, one-way ANOVA with Holm-Šidàk's multiple comparison test, *p≤0.05, **p≤0.01, ***p<0.001). Scale bar (G): 4 mm.
About 50% of HHT patients harbor mutations in the Acvrl1 gene^1, which encodes for the ALK1 receptor. To validate the clinical relevance of the use of Palbociclib for the treatment of HHT, we crossed Cdh5Cre^ERT2 mice with Alk1^flox/flox mice (6-8-week-old) to generate an endothelial-specific inducible deletion of Alk1 (referred to as Alk1EC^iKO), which is an established preclinical mouse model of human HHT type 2^12,25. Neonatal Alk1EC^iKO pups received a single i.p. injection of tamoxifen at P3 to induce Alk1 gene deletion and were then treated with Palbociclib via oral gavage at P4, and their retinal vasculature was analyzed at P5 (FIG. 5A). […] Due to the relatively short survival time post-tamoxifen induction in Alk1EC^iKO mice (approximately 48 hours), our study is limited to a single Palbociclib injection, which represents a technical challenge in exploring additional treatments. […] Single Cell RNA sequencing analysis of Palbociclib effects on endothelial arteriovenous identity in Alk1EC^iKO mice.

[3] = system: VEGF-A signaling; assay: Western Blot of VEGF-A-induced signaling in HUVECs; format: cell-based, human; conditions: Palbociclib pre-treatment 24 h, 15-minute VEGF-A stimulation
Method: (§1) FIG. 8A illustrates Western Blot analysis of the phosphorylation of the indicated proteins in response to VEGF-A (1.5 nM) in control vs. CDK4/6i treated HUVECs. FIG. 8B illustrates Western Blot analysis of the phosphorylation of the indicated proteins in response to BMP9 (10 ng/ml) in control vs. CDK4/6i-treated HUVECs. FIG. 8C illustrates quantification of phosphorylation normalized to total protein levels. (N=5 independent experiments, Data are mean±SEM, Mann-Whitney U test: *p<0.05). […] FIG. 8E illustrates ENDOGLIN (green) and IB4 (white) staining of retinal flat-mounts from P5 Alk1^fl/fl, Alk1^fl/fl treated with CDK4/6i, Alk1EC^iKO, and Alk1EC^iKO treated with CDK4/6i animals (A: Artery; V: Vein). FIG. 8F illustrates quantification of fluorescence intensity of ENDOGLIN staining in (FIG. 8E) retinal venous vessels of the indicated animals (N=4 retinas per group. Data are mean±SEM, one-way ANOVA with Tukey's multiple comparison test: *p<0.05; ns p>0.05). FIG. 8G illustrates timeline used for Tx injection, and CDK4/6i and FLT1 blocking antibody treatment of Alk1EC^iKO pups. […]
(§2) Next, we treated HUVECs with Alk1 siRNA to silence Alk1 and test the VEGF-A-induced response, with or without Palbociclib treatment, using pAKT activation as a readout.

[4] = system: BMP9 signaling; assay: Western Blot of BMP9-induced signaling in HUVECs; format: cell-based, human; conditions: Palbociclib pre-treatment
Method: as §1, §2

[5] = system: ENDOGLIN; assay: ENDOGLIN expression in retinal venous ECs of Alk1EC^iKO mice; format: in vivo, mouse; conditions: both mRNA and protein levels
Method: as §1
Eyes from P7 pups were pre-fixed in 4% PFA for 20 min at room temperature (RT). […] Quantification of vascular progression, density, AVM numbers and vessel diameters in the retinal vasculature were performed with Image J software.

[6] = system: human umbilical vein endothelial cells; assay: Proliferation of human umbilical vein endothelial cells assessed by EdU uptake; format: cell-based; conditions: in vitro, dose response
From the text: FIG. 16 illustrates palbociclib, CVT-313 and ribociclib dose response effects on proliferation of human umbilical vein endothelial cells assessed by EdU uptake.
This example discusses that endothelial cell cycle dysregulation is a mechanism involved in the development of arterio-venous malformations in HHT, as well as other types of vascular malformations named above. Palbociclib, a FDA-approved cell cycle inhibitor, could be used to prevent arterio-venous and other malformations, including venous, capillary, lymphatic and cerebral cavernous malformations.

CC(=O)c1c(C)c2cnc(Nc3ccc(N4CCNCC4)cn3)nc2n(C2CCCC2)c1=O [Palbociclib, 6-acetyl-8-cyclopentyl-5-methyl-2-[5-(1-piperazinyl)pyridine-2-ylamino]pyrido[2,3-d]pyrimidin-7(8H)-one]
arterial vessel diameter ([1]; CDK4/6i P4-P6, P7): not arterial vessel diameters | retinal vascular density ([1]; CDK4/6i P4-P6, P7): less hyperdense retinal vascular plexi | retinal vascular progression ([1]; CDK4/6i P4-P6, P7): normalized retinal vascular progression | venous vessel diameter ([1]; CDK4/6i P4-P6, P7): normalized | AV shunt number per retina ([1]; CDK4/6i oral gavage 120 mg/kg/d P4, P5, P6, retinas at P7, vs BMP9/10 Abs only): fewer AV shunts | veins filled with blue latex (arteriovenous shunts) in the intestinal tract ([2]; P7, gastrointestinal tract): absent | diameter of the basilar and middle cerebral arteries ([2]; brain, single dose of Palbociclib at P4): trend toward normalization | number of latex-filled veins in brain ([2]; brain, vs untreated Alk1EC^iKO): significantly reduced | latex blue dye extravasation across the intrapulmonary bed ([2]; lungs): dye extravasation was reduced | pAKT activation in response to VEGF-A [3]: significantly decreased | pERK1/2 activation in response to VEGF-A [3]: significantly decreased | SMAD1/5/8 phosphorylation in response to BMP9 [4]: enhanced SMAD1/5/8 phosphorylation | expression of ENDOGLIN in venous ECs [5]: promoted the expression of ENDOGLIN in venous ECs | EC proliferation assessed by EdU uptake [6]: inhibit EC proliferation

Source: patent US20240285631A1, “METHODS OF TREATING VASCULAR MALFORMATIONS” (priority 2023, published 2024)
